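All cell lines were grown in 96-well plates and treated with compound for 48 hours. TGI: total growth inhibition.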
Assays:
Test in all cases: DTP human tumour cell line panel, 48 h
786-0 renal = test system: 786-0 renal
A498 renal = test system: A498 renal
A549 NSCLC = test system: A549 NSCLC
ACHN renal = test system: ACHN renal
CCRF-CEM leukemia = test system: CCRF-CEM leukemia
COLO 205 colon = test system: COLO 205 colon
DLD-1 colon = test system: DLD-1 colon
DMS 114 small cell lung = test system: DMS 114 small cell lung
DMS 273 small cell lung = test system: DMS 273 small cell lung
EKVX NSCLC = test system: EKVX NSCLC
HCC-2998 colon = test system: HCC-2998 colon
HCT-116 colon = test system: HCT-116 colon
HCT-15 colon = test system: HCT-15 colon
HL-60(TB) leukemia = test system: HL-60(TB) leukemia
HOP-18 NSCLC = test system: HOP-18 NSCLC
HOP-62 NSCLC = test system: HOP-62 NSCLC
HT29 colon = test system: HT29 colon
IGROV1 ovarian = test system: IGROV1 ovarian
K-562 leukemia = test system: K-562 leukemia
KM12 colon = test system: KM12 colon
KM20L2 colon = test system: KM20L2 colon
LOX IMVI melanoma = test system: LOX IMVI melanoma
LXFL 529 NSCLC = test system: LXFL 529 NSCLC
M14 melanoma = test system: M14 melanoma
MALME-3M melanoma = test system: MALME-3M melanoma
MOLT-4 leukemia = test system: MOLT-4 leukemia
NCI-H226 lung = test system: NCI-H226 lung
NCI-H23 lung = test system: NCI-H23 lung
NCI-H460 lung = test system: NCI-H460 lung
NCI-H522 lung = test system: NCI-H522 lung
OVCAR-3 ovarian = test system: OVCAR-3 ovarian
OVCAR-5 ovarian = test system: OVCAR-5 ovarian
OVCAR-8 ovarian = test system: OVCAR-8 ovarian
RPMI-8226 leukemia = test system: RPMI-8226 leukemia
RXF 393 renal = test system: RXF 393 renal
SF-295 CNS = test system: SF-295 CNS
SF-539 CNS = test system: SF-539 CNS
SK-MEL-2 melanoma = test system: SK-MEL-2 melanoma
SK-MEL-28 melanoma = test system: SK-MEL-28 melanoma
SK-MEL-5 melanoma = test system: SK-MEL-5 melanoma
SK-OV-3 ovarian = test system: SK-OV-3 ovarian
SN12C renal = test system: SN12C renal
SNB-19 CNS = test system: SNB-19 CNS
SNB-75 CNS = test system: SNB-75 CNS
SR leukemia = test system: SR leukemia
SW-620 colon = test system: SW-620 colon
TK-10 renal = test system: TK-10 renal
U251 CNS = test system: U251 CNS
UACC-257 melanoma = test system: UACC-257 melanoma
UACC-62 melanoma = test system: UACC-62 melanoma
UO-31 renal = test system: UO-31 renal

Measured: TGI

O=[N+]([O-])c1ccc(C[P+]2(c3ccccc3)CCCCC2)cc1
> 100 µM: 786-0 renal | A498 renal | A549 NSCLC | ACHN renal | CCRF-CEM leukemia | COLO 205 colon | DLD-1 colon | DMS 114 small cell lung | DMS 273 small cell lung | EKVX NSCLC | HCC-2998 colon | HCT-116 colon | HCT-15 colon | HL-60(TB) leukemia | HOP-18 NSCLC | HOP-62 NSCLC | HT29 colon | IGROV1 ovarian | K-562 leukemia | KM12 colon | KM20L2 colon | LOX IMVI melanoma | LXFL 529 NSCLC | M14 melanoma | MALME-3M melanoma | MOLT-4 leukemia | NCI-H226 lung | NCI-H23 lung | NCI-H460 lung | NCI-H522 lung | OVCAR-3 ovarian | OVCAR-5 ovarian | OVCAR-8 ovarian | RPMI-8226 leukemia | RXF 393 renal | SF-295 CNS | SF-539 CNS | SK-MEL-2 melanoma | SK-MEL-28 melanoma | SK-MEL-5 melanoma | SK-OV-3 ovarian | SN12C renal | SNB-19 CNS | SNB-75 CNS | SR leukemia | SW-620 colon | TK-10 renal | U251 CNS | UACC-257 melanoma | UACC-62 melanoma | UO-31 renal

— PubChem BioAssay (NCI)
